# Reference: paper PMC6987128, “Target protein-oriented isolation of Hes1 dimer inhibitors using protein based methods” (Scientific Reports, 2020)
# Molecular target: T1, Hes1 dimer formation (Hes1-Hes1 interaction) (Rattus norvegicus, UniProt Q04666)
# T1 construct: Glutathione-S-transferase (GST) fused rat Hes1(3–281) protein was expressed in Escherichia coli; GST (N, cleaved yes); GST (N); made in house; host or cells: Escherichia coli JM109 (pGEX-ratHes1 3-281)
# T1 sequence (Q04666 3-281): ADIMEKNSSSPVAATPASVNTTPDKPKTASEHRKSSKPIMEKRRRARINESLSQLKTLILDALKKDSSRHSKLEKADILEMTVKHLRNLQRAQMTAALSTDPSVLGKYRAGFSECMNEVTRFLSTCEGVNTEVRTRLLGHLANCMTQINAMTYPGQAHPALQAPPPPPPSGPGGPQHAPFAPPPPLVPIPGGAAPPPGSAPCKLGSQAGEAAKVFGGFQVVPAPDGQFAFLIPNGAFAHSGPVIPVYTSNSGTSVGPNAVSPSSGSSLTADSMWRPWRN
# Assay: Hes1-Hes1 interaction fluorescent plate assay (Hes1 dimer formation inhibition)
# Assay type: binding
# Excerpt: It is essential to inhibit undesired PPIs in drug development, and bioactivity-guided isolation using the inhibitory activity of PPIs is an attractive method to obtain effective inhibitors. However, currently there are only a few examples of such approaches using PPI assay systems[22],[23]. We previously developed a Hes1-Hes1 interaction fluorescent plate assay and reported the screening results of our natural products compound library (Fig. 2A)[24]. Glutathione-S-transferase (GST) fused rat Hes1(3–281) protein was expressed in Escherichia coli and purified rat Hes1 protein was immobilized on the bottom of 96 well plates. We prevented GST-GST interactions, which would result in false positives, by preparing GST-free Hes1 protein by GST cleavage with Turbo3C protease. After labeling Hes1 with Cy3, this florescent Hes1 protein was added to the wells of the above plate and incubated for 24 h at 4 °C. Hes1-Hes1 interaction was successfully detected as Cy3 fluorescence intensity. Using this assay system, we screened our 118 plant extract library and identified the MeOH extract of Psidium guajava leaves to contain naturally occurring compounds that inhibit Hes1 dimer formation. The MeOH extract (29.9 g) was fractionated using Diaion HP-20 with a MeOH-acetone solvent system to afford fractions 1A to 1C. Active fraction 1A (27.2 g) was suspended in 10% aq. MeOH and partitioned with hexane, EtOAc and BuOH to obtain hexane (1.1 g), EtOAc (5.7 g), BuOH (4.7 g) and aqueous (18.9 g) soluble fractions. Part of the active BuOH soluble fraction was subjected to ODS column chromatography and reverse-phase HPLC. Activity-guided separation yielded ten compounds (1–10; Fig. 3). The isolated compounds were identified as morin (1)[25], isoquercitrin (2)[26], methyl gallate (3)[27], (+)-catechin (4)[28],[29], dihydrophaseic acid (5)[30], quercetin (6)[26],[31], avicularin (7)[32],[33], gallic acid (8)[34], protocatechuic acid (9)[35] and 4-hydroxybenzoic acid (10)[36] based on comparisons of their spectral data with spectra in the literature.
# Hes1-bound microplate wells[24] (Nunc Immobilizer^TM Amino Plate, Thermo) were incubated with 50 μL of Cy3-labeled-Hes1 in NET-N buffer (NET buffer (20 mM Tris-HCl, pH 7.5, 200 mM NaCl, 1 mM EDTA) containing 0.05% Nonidet® P-40, ca. 7 mg/L, dye/protein = 0.4) for 24 h at 4 °C. After removing the protein solution, the wells were washed twice with 200 μL of PBST, then each compound solution (in NET-N buffer, 50 μL) was added and the plates were incubated for 1 h at RT in the dark. The wells were washed twice with 200 μL of PBST, then dried under reduced pressure for 1 h in the dark. The Cy3 dye was excited at 544 nm and emission was monitored at 590 nm using a microplate reader (Fluoroskan Ascent, Thermo Labsystems, Vantaa, Finland). The assays were typically carried out in three individual wells, and the mean value and SD were calculated. The equilibrium between dimer formation between Cy3-Hes1/Cy3-Hes1 (in solution) and Cy3-Hes1/immobilized-Hes1 allowed the detection of Cy3-Hes1/immobilized-Hes1.
# Typical procedure; Nunc Immobilizer^TM Amino 96 well Plate, white (Nalge Nunc Int., NY, USA) was used for immobilizing of Hes1. The micro plate wells were incubated with 100 µl of Hes1 (10 µg/mL in PBS) 2 h at 4 °C. After removing protein solution, the wells were incubated for 2 h at 4 °C with 100 µL of 10 mM ethanolamine (in 100 mM Na2CO3 buffer, pH 9.6) to block remaining activated units on the well. Then, wells were washed twice with 200 µL of PBST (PBS containing 0.05% Tween 20).
# The Cy3 dye reagent was prepared as 1 vial of Cy3 monofunctional dye reagent (succinimidylester type; GE Healthcare, Buckinghamshire, UK) in DMSO (50 µL) and stored at -20 °C. Cy3-labeled Hes1 was prepared by mixing of protein in PBS with Cy3 dye reagent in DMSO (typically 0.6 µL of DMSO solution to 1 mL of 10 mg/L protein solution in PBS) for 30 min at 4 °C in the dark. […]
smiles,measurement,setting,value
"CC1OC(Oc2cc3c(=O)oc4c(O)c(O)cc5c(=O)oc(c2O)c3c45)C(O)C(O)C1OC(=O)c1cc(O)c(O)c(O)c1 [Compound 11, 4-O-(4″-O-galloyl-α-L-rhamnopyranosyl)ellagic acid]",remaining activity at 2.5 µM,"24 h, 2.5 μM compound, 0 μM = 100, read-out: Hes1 dimer formation rate (%)",50.4%
same,remaining activity at 5 µM,"24 h, 5 μM compound, 0 μM = 100, read-out: Hes1 dimer formation rate (%)",27.6%
same,remaining activity at 10 µM,"24 h, 10 μM compound, 0 μM = 100, read-out: Hes1 dimer formation rate (%)",18.1%
same,remaining activity at 25 µM,"24 h, 25 μM compound, 0 μM = 100, read-out: Hes1 dimer formation rate (%)",4.1%
same,IC50,"Cy3-labeled Hes1 / immobilized Hes1, compound 1 h at RT, read-out: Hes1 dimer formation inhibitory activity IC50",2530 nM
